Results published in ChEMBL document CHEMBL6182844, “LC-MS Guided Discovery and Biosynthetic Pathway of Coprisamides E-H, Cinnamic Acid-Containing Metabolites from the Marine Algae-Derived Streptomyces thermolineatus NAK03196” (2025).
≈ marks a conversion by molar mass, not a printed value. One block for each molecule: values may come before it. Calls of active or inactive are those of the source. The rule behind the calls is not given here.

Assays:
Settings in all cases: time 12-16 hrs
Staphylococcus aureus [1] = experiment: Antibacterial activity against Staphylococcus aureus ATCC 29213 assessed as inhibition on the growth incubated for 12 to 16 hrs by paper disc diffusion assay; type: functional, organism-based
Enterococcus faecalis = experiment: Antibacterial activity against Enterococcus faecalis assessed as inhibition on the growth incubated for 12 to 16 hrs by paper disc diffusion assay; type: functional, organism-based
Micrococcus luteus = experiment: Antibacterial activity against Micrococcus luteus assessed as inhibition on the growth incubated for 12 to 16 hrs by paper disc diffusion assay; type: functional, organism-based
Acinetobacter baumannii = experiment: Antibacterial activity against Acinetobacter baumannii assessed as inhibition on the growth incubated for 12 to 16 hrs by paper disc diffusion assay; type: functional, organism-based
Klebsiella pneumoniae = experiment: Antibacterial activity against Klebsiella pneumoniae assessed as inhibition on the growth incubated for 12 to 16 hrs by paper disc diffusion assay; type: functional, organism-based
Pseudomonas aeruginosa = experiment: Antibacterial activity against Pseudomonas aeruginosa assessed as inhibition on the growth incubated for 12 to 16 hrs by paper disc diffusion assay; type: functional, organism-based
Escherichia coli = experiment: Antibacterial activity against Escherichia coli assessed as inhibition on the growth incubated for 12 to 16 hrs by paper disc diffusion assay; type: functional, organism-based
Staphylococcus aureus [2] = experiment: Antibacterial activity against methicillin-resistant Staphylococcus aureus ATCC 43300 assessed as inhibition on the growth incubated for 12 to 16 hrs by paper disc diffusion assay; type: functional, organism-based
Staphylococcus aureus [3] = experiment: Antibacterial activity against the Staphylococcus aureus 16339 incubated for 12 to 16 hrs by paper disc diffusion assay; type: functional

SMILES: C/C=C/C=C/C=C\c1ccccc1/C=C/C(=O)N[C@H](C)C(=O)N[C@@H]1COC(=O)[C@H](CC(=O)O)NC(=O)[C@H](CNC(=O)[C@@H](N)C(C)C)NC(=O)[C@H](C(C)C)NC(=O)[C@@H](CC(C)C)NC1=O
inhibition (Staphylococcus aureus [1]): inactive
inhibition (Enterococcus faecalis): inactive
inhibition (Micrococcus luteus): inactive
inhibition (Acinetobacter baumannii): inactive
inhibition (Klebsiella pneumoniae): inactive
inhibition (Pseudomonas aeruginosa): inactive
inhibition (Escherichia coli): inactive
inhibition (Staphylococcus aureus [2]): inactive
MIC (Staphylococcus aureus [3]): 890 µg/mL (≈ 997 µM)

MIC (Staphylococcus aureus [3]): 10 µg/mL (≈ 22.5 µM)
SMILES: CN(C)[C@@H]1C(O)=C(C(N)=O)C(=O)[C@@]2(O)C(O)=C3C(=O)c4c(O)cccc4[C@@](C)(O)[C@H]3C[C@@H]12 [TETRACYCLINE]
